Counter-ions that a name gives are not always drawn.
What follows are compounds tested against ASGPR (Rattus norvegicus (Rat), UniProt P02706+P08290) (assay: Fluorescent polarization (FP) ASGPR binding assay). Settings: Table K, monomeric compounds; competition with 1 nM Cy5-labeled trimeric GalNAc tracer; Wistar rat liver membrane.
Chain of ASGPR (P02706 whole entry): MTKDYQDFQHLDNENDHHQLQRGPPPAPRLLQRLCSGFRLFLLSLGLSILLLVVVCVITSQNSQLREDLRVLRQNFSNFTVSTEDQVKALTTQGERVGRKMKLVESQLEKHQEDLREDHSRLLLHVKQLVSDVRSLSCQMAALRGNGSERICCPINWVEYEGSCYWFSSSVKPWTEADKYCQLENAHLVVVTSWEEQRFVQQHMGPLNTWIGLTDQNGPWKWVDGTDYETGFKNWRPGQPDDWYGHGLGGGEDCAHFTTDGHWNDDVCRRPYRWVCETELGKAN
Chain of ASGPR (P08290 whole entry): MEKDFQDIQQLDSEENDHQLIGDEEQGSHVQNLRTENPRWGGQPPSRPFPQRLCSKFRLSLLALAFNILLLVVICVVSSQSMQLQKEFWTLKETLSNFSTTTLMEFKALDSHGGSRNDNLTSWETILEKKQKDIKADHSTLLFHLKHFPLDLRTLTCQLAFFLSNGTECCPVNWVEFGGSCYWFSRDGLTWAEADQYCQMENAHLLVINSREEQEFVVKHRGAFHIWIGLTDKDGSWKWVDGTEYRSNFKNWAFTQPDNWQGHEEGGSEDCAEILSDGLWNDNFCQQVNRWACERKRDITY
Source text: Fluorescent Polarization (FP) ASGPR Binding Assay to Determine the Binding Affinities of ASGPR-Targeted Small Molecules:
The technique of fluorescence polarization (FP) is based on the observation that when a fluorescently labeled molecule is excited by polarized light, it emits light with a degree of polarization that is inversely proportional to the rate of molecular rotation. This property of fluorescence can be used to measure the interaction of a small labeled ligand with a larger protein and provides a basis for direct and competition binding assays.
The assay was performed in 384-well microplates (GREINER bio-one, 781076). Membrane prepared from Wistar rat liver was used as a source of ASGPR and Cy5 fluorophore-labeled trimeric GauNAc-tool compound was used as a tracer.
In the FP binding experiments, 15 μltest sample was mixed with 15 μl of […] liver membrane. After 10 minutes incubation at room temperature, 10 μl of the Cy5-labeled trimeric GalNAc-tool compound (final concentration: 1 nM) were added. The FP signals were recorded after 30 minutes incubation at room temperature at Ex. 612 nm/Em. 670 with PheraStar FXS (BMG Biotech). The optimal FP buffer was 50 mM Tris, pH 7.4; 3 mM CaCl2; 0.04% Triton X100; 0,05% BSA.
In the case of `CNC(=O)C[C@H]1O[C@@H](n2cnc3c(=O)[nH]c(N)nc32)[C@H](O)[C@@H]1O` [Compound 71, 2-[(2R,3S,4R,5R)-5-(2-Amino-6-oxo-1H-purin-9-yl)-3,4-dihydroxy-tetrahydrofuran-2-yl]-N-methyl-acetamide], the IC50 is reported as 605 µM. `CN(C)C(=O)C[C@H]1O[C@@H](n2cnc3c(=O)[nH]c(N)nc32)[C@H](O)[C@@H]1O` [Compound 72, 2-[(2R,3S,4R,5R)-5-(2-Amino-6-oxo-1H-purin-9-yl)-3,4-dihydroxytetrahydrofuran-2-yl]-N,N-dimethyl-acetamide] showed an IC50 of 89 µM. In the case of `CCCCNC(=O)C[C@H]1O[C@@H](n2cnc3c(=O)[nH]c(N)nc32)[C@H](O)[C@@H]1O` [Compound 73, 2-[(2R,3S,4R,5R)-5-(2-Amino-6-oxo-1H-purin-9-yl)-3,4-dihydroxy-tetrahydrofuran-2-yl]-N-butyl-acetamide], the IC50 is reported as 1920 µM. In the case of `CC(=O)N[C@H]1CN(C(=O)CCCCC(=O)OCc2ccccc2)C[C@H](O)[C@@H]1O` [Compound 112, benzyl 6-[(3S,4R,5S)-3-acetamido-4,5-dihydroxy-1-piperidyl]-6-oxo-hexanoate], the IC50 is reported as 344 µM. `CC(=O)N[C@H]1CN(C(=O)OCc2ccccc2)C[C@H](O)[C@@H]1O` [Compound 121, benzyl (3S,4R,5S)-3-acetamido-4,5-dihydroxy-piperidine-1-carboxylate] gave an IC50 of 563 µM. In the case of `CC(=O)N[C@H]1CN(C(=O)CCCCCOCc2ccccc2)C[C@H](O)[C@@H]1O` [Compound 128, N-[(3S,4R,5S)-1-(6-benzyloxyhexanoyl)-4,5-dihydroxy-3-piperidyl]acetamide], the IC50 is reported as 451 µM. For `CC(=O)N[C@H]1CN(C(=O)CCCCCO)C[C@H](O)[C@@H]1O` [Compound 129, N-[(3S,4R,5S)-4,5-dihydroxy-1-(6-hydroxyhexanoyl)-3-piperidyl]acetamide], the IC50 was 585 µM. Work on `O=C(CCCCCOCc1ccccc1)N1C[C@H](O)[C@H](O)[C@@H](n2cc(COc3ccccc3)nn2)C1` [Compound 131, 6-benzyloxy-1-[(3S,4R,5S)-3,4-dihydroxy-5-[4-(phenoxy-methyl)triazol-1-yl]-1-piperidyl]hexan-1-one] yielded an IC50 of 1770 µM. With `O=C1[C@H](O)[C@H](O)[C@@H](n2cc(COc3ccccc3)nn2)CN1CCCCCCOCc1ccccc1` [Compound 140, (3R,4R,5S)-1-(6-benzyloxyhexyl)-3,4-dihydroxy-5-[4-(phenoxymethyl)triazol-1-yl]piperidin-2-one] the IC50 was 658 µM. `CCC[C@@H]1[C@H](O)[C@H](O)[C@@H](NC(C)=O)CN1C(=O)CCCCC(=O)OCc1ccccc1` [Compound 146, benzyl 6-[(2R,3S,4R,5S)-5-acetamido-3,4-dihydroxy-2-propyl-1-piperidyl]-6-oxo-hexanoate] was tested, and the IC50 was 488 µM. Compound `CCC[C@@H]1[C@H](O)[C@H](O)[C@@H](NC(C)=O)CN1C(=O)CCCCC(=O)O` [Compound 148, 6-[(2R,3S,4R,5S)-5-acetamido-3,4-dihydroxy-2-propyl-1-piperidyl]-6-oxo-hexanoic acid] has an IC50 of 370 µM. `CC(=O)N[C@H]1CN(C(=O)CCCCC(=O)OCc2ccccc2)[C@H](COC(C)(C)C)[C@H](O)[C@@H]1O` [Compound 160, benzyl 6-[(2R,3S,4R,5S)-5-acetamido-2-(tert-butoxymethyl)-3,4-dihydroxy-1-piperidyl]-6-oxo-hexanoate] gave an IC50 of 1050 µM. Compound `CC(=O)N[C@H]1CN[C@H](COC(=O)CCCCC(=O)OCc2ccccc2)[C@H](O)[C@@H]1O` [Compound 161, 06-[[(2R,3S,4R,5S)-5-acetamido-3,4-dihydroxy-2-piperidyl]methyl] 01-benzyl hexanedioate] has an IC50 of 161 µM. Work on `CC(=O)N[C@H]1CN(C(=O)CCCCC(=O)OCc2ccccc2)[C@@H](CO)[C@H](O)[C@@H]1O` [Compound 162, benzyl 6-[(2S,3S,4R,5S)-5-acetamido-3,4-dihydroxy-2-(hydroxymethyl)-1-piperidyl]-6-oxo-hexanoate] yielded an IC50 of 576 µM. `CC(=O)N[C@H]1CN(CCCCCCOCc2ccccc2)[C@H](CO)[C@H](O)[C@@H]1O` [Compound 180, N-[(3S,4R,5S,6R)-1-(6-benzyloxyhexyl)-4,5-dihydroxy-6-(hydroxymethyl)-3-piperidyl]acetamide] was tested, and the IC50 was 628 µM. In the case of `CC(=O)N[C@H]1C(O)O[C@H](CO)[C@H](O)[C@@H]1O` (stereo partly drawn) [Compound 193, N-[(3R,4R,5R,6R)-2,4,5-trihydroxy-6-(hydroxymethyl)-tetrahydropyran-3-yl]acetamide, reference compound], the IC50 is reported as 545 µM. Work on `Nc1nc2c(ncn2[C@@H]2O[C@H](CO)[C@@H](O)[C@H]2O)c(=O)[nH]1` [Compound 194, 2-amino-9-[(2R,3R,4S,5R)-3,4-dihydroxy-5-(hydroxymethyl)-tetrahydrofuran-2-yl]-1H-purin-6-one] yielded an IC50 of 513 µM. Compound `CN(C)c1nc2c(ncn2[C@@H]2O[C@H](CO)[C@@H](O)[C@H]2O)c(=O)[nH]1` [Compound 198, 9-[(2R,3R,4S,5R)-3,4-dihydroxy-5-(hydroxymethyl)-tetrahydro-furan-2-yl]-2-(dimethylamino)-1H-purin-6-one] has an IC50 of 1940 µM. Compound `CC(C)C(=O)Nc1nc2c(ncn2[C@@H]2O[C@H](CO)[C@@H](O)[C@H]2O)c(=O)[nH]1` [Compound 219, N-Isobuturylguanosine] has an IC50 of 129 µM.

Same assay, conditions: Table L, targeted nucleosides; competition with 1 nM Cy5-labeled trimeric GalNAc tracer; Wistar rat liver membrane
In the case of `Cc1cn([C@H]2CN(CCOCCOCCOC[C@H]3O[C@@H](n4cnc5c(=O)[nH]c(N)nc54)[C@H](O)[C@@H]3O)CC(CO)(CO)O2)c(=O)[nH]c1=O` [Compound 254, 1-[(2R)-4-[2-[2-[2-[[(2R,3S,4R,5R)-5-(2-Amino-6-oxo-1H-purin-9-yl)-3,4-dihydroxy-tetrahydrofuran-2-yl]methoxy]ethoxy]ethoxy]ethyl]-6,6-bis-(hydroxymethyl)-morpholin-2-yl]-5-methyl-pyrimidine-2,4-dione], the IC50 is reported as 1240 µM. `Cc1cn([C@H]2CN(CCOCCOCCOP(=O)(O)OC[C@H]3O[C@@H](n4cnc5c(=O)[nH]c(N)nc54)[C@H](O)[C@@H]3O)CC(CO)(CO)O2)c(=O)[nH]c1=O` [Compound 258, [(2R,3S,4R,5R)-5-(2-Amino-6-oxo-1H-purin-9-yl)-3,4-di-hydroxy-tetrahydrofuran-2-yl]methyl 2-[2-[2-[(6R)-2,2-bis(hydroxymethyl)-6-(5-methyl-2,4-dioxo-pyrimidin-1-yl)morpholin-4-yl]ethoxy]ethoxy]ethyl hydrogen phosphate-sodium salt] gave an IC50 of 1850 µM.

Same assay, conditions: Table M, trimeric compounds; competition with 1 nM Cy5-labeled trimeric GalNAc tracer; Wistar rat liver membrane
`CC(=O)N[C@H]1CN(C(=O)CCCCC(=O)NCCCNC(=O)CCOCC(COCCC(=O)NCCCNC(=O)CCCCC(=O)N2C[C@H](NC(C)=O)[C@@H](O)[C@@H](O)C2)(COCCC(=O)NCCCNC(=O)CCCCC(=O)N2C[C@H](NC(C)=O)[C@@H](O)[C@@H](O)C2)NC(=O)CCCCCCCCCCCOCc2ccccc2)C[C@H](O)[C@@H]1O` [Compound 267, N,N′,N′-((3S,3′S,3″S,4R,4′R,4″R,5S,5′S,5″S)-(17-(12-(benzyloxy)dodecanamido)-6,12,22,28-tetraoxo-17-((3-oxo-3-((3-(6-oxopentanamido)propyl)amino)propoxy)methyl)-15,19-dioxa-7,11,23,27-tetraazatritriacontanedioyl)tris(4,5-dihydroxypiperidine-1,3-diyl))triacetamide] showed an IC50 of 0.563 µM. For `CC(=O)NC1CN(C(=O)CCCC(=O)NCCCNC(=O)CCOCC(COCCC(=O)NCCCNC(=O)CCCC(=O)N2C[C@H](NC(C)=O)[C@@H](O)[C@@H](O)C2)(COCCC(=O)NCCCNC(=O)CCCC(=O)N2C[C@H](NC(C)=O)[C@@H](O)[C@@H](O)C2)NC(=O)CCCCCCCCCCCOCc2ccccc2)C[C@H](O)[C@@H]1O` (stereo partly drawn) [Compound 268, N,N′,N′-((3S,3′S,3″S,4R,4′R,4″R,5S,5′S,5″S)-(16-(12-(benzyloxy)dodecanamido)-5,11,21,27-tetraoxo-16-((3-oxo-3-((3-(5-oxopentanamido)propyl)amino)propoxy)methyl)-14,18-dioxa-6,10,22,26-tetraazahentriacontanedioyl)tris(4,5-dihydroxy-piperidine-1,3-diyl))triacetamide], the IC50 was 0.335 µM. In the case of `CC(=O)N[C@H]1CN(C(=O)CCC(=O)NCCCNC(=O)CCOCC(COCCC(=O)NCCCNC(=O)CCC(=O)N2C[C@H](NC(C)=O)[C@@H](O)[C@@H](O)C2)(COCCC(=O)NCCCNC(=O)CCC(=O)N2C[C@H](NC(C)=O)[C@@H](O)[C@@H](O)C2)NC(=O)CCCCCCCCCCCOCc2ccccc2)C[C@H](O)[C@@H]1O` [Compound 269, N,N′,N′-((3S,3′S,3″S,4R,4′R,4″R,5S,5′S,5″S)-(15-(12-(benzyloxy)dodecanamido)-4,10,20,26-tetraoxo-15-((3-oxo-3-((3-(4-oxobutanamido)propyl)amino)pro-poxy)methyl)-13,17-dioxa-5,9,21,25-tetraazanonacosanedioyl)tris(4,5-dihydroxypiperidine-1,3-diyl))triacetamide], the IC50 is reported as 0.598 µM.

— patent publication US20240092819A1, “NOVEL LIGANDS FOR ASIALOGLYCOPROTEIN RECEPTOR” (SANOFI, priority 2020, published 2024)
